Columns and labels:
[1] = test system: C57BL/6 mice with preformed gallstones; assay: Gallstone dissolution in mice with preformed gallstones; assay type: in vivo; conditions: Paigen diet 4 weeks, then 30 mg/kg orally once a day on chow diet for 4 weeks
Experimental: To study gallstone dissolution, gallbladders were harvested from mice treated as follows. C57BL/6 mice were fed a Paigen diet for 4 weeks to initiate gallstone formation. Subsequently these mice were administered vehicle or 30 mg/kg Compound A orally once a day and fed a standard chow diet for 4 weeks to study the effect of Compound A on preformed gallstones.

[2] = test system: C57BL/6 mice fed a methionine/choline deficient (MCD) diet; assay: MCD diet fed mice: serum, liver gene expression and liver histology; assay type: in vivo
Experimental: Male C57BL/6 mice were fed a standard chow diet or a methionine/choline deficient (MCD) diet (MCD diet; TD 90262, Harlan Teklad). MCD diet fed mice develop fibrosis and NAFLD including steatosis and NASH due to impaired mitochondrial β-oxidation and reduced hepatic triglyceride secretion.
Mice were administered vehicle or 30 mg/kg Compound A orally once a day for 4 weeks. Three hours after the final treatment, mice were euthanized, and blood and liver were collected for analyses.
FIGS. 11A and 11B show the expression levels of VCAM-1 and MCP-1, respectively. Real-time RT PCR analysis of liver RNA was performed. Expression levels were normalized to GAPDH, and the mean level of expression of each gene in vehicle treated mice fed a standard chow diet was defined as 1.0. 7 mice were tested in each group. Data are presented as the mean±SE.
FIGS. 13, 14, and 15 show representative liver sections from mice fed a standard chow diet, vehicle treated mice fed a MCD diet, and Compound A (30 mg/kg orally once a day) treated mice fed a MCD diet for 4 weeks.
Male C57BL/6 mice were fed a standard chow diet or a MCD diet and treated with either vehicle or 30 mg/kg Compound A orally once a day for 4 weeks. Three hours after the final treatment, mice were euthanized and liver expression of CYP2E1, a reactive oxygen species (ROS) generating microsomal enzyme, was analyzed.

[3] = test system: Hep3B cells; assay: IL-6 induced CRP gene expression in Hep3B cells; assay type: cell-based, Human; conditions: Compound A 1 μM; IL-6 10 ng/ml or 50 ng/ml; P<0.001 vs DMSO
Experimental: Human hepatoma cells, Hep3B secrete the acute phase protein, C-reactive protein (CRP) upon IL-6 treatment. Cells were cotreated with Compound A to determine if Compound A could decrease IL-6 induced CRP secretion.
FIGS. 26A and 26B show the CRP gene expression level in Hep3B cells stimulated with IL-6 (10 ng/ml or 50 ng/ml), and treated with vehicle (DMSO) or Compound A (1 μM). […] (*P<0.001, Hep3B/DMSO vs. Hep3B/Compound A).

[4] = test system: FXRKO mice challenged with LPS; assay: LPS-induced liver acute phase response, FXR deficient mice; assay type: in vivo; conditions: 30 mg/kg for 4 days; LPS treated FXRKO mice
Experimental: (§1) Wildtype and FXR deficient mice were treated with Compound A (30 mg/kg) or vehicle for 4 days. On day 4, mice were challenged with 2.5 micrograms of lipopolysaccharide (LPS) to induce an acute phase response. After 4 hours, the mice were euthanized and their livers were harvested for analysis of expression of various factors. […] Compound A attenuated the LPS-induced murine liver acute phase response. […] (*P<0.01, WT/LPS/V vs. WT/LPS/Compound A).

[5] = test system: mice fed a Paigen diet; assay: Gallstone formation in Paigen diet fed mice; assay type: in vivo; conditions: 30 mg/kg orally once a day for 4 weeks
Experimental: To study gallstone formation, gallbladders were harvested from mice fed a Paigen diet and administered vehicle or 30 mg/kg Compound A orally once a day for 4 weeks.

[6] = test system: Wildtype mice challenged with LPS; assay: LPS-induced liver acute phase response, wildtype mice; assay type: in vivo; conditions: 30 mg/kg for 4 days; 2.5 micrograms LPS, 4 hours; P<0.01
Experimental: as §1

[7] = test system: wildtype (WT) mice fed a MCD diet; assay: MCD diet, wildtype mice (WT vs FXRKO study); assay type: in vivo; conditions: 30 mg/kg orally once a day for 4 weeks
Experimental: Mice were fed a standard chow diet or a MCD diet and treated with either vehicle or 30 mg/kg Compound A orally once a day for 4 weeks.

[8] = test system: Wildtype mice challenged with CCl4; assay: CCl4 induced acute liver injury and fibrosis in mice; assay type: in vivo; conditions: 30 mg/kg for 4 days, 30 μl/kg CCl4 on day 3, 24 hours
Experimental: Wildtype mice were treated with 30 mg/kg Compound A or vehicle for 4 days. On day 3, mice were challenged with 30 μl/kg of carbon tetrachloride (CCl4) to induce acute liver injury. After 24 hours, mice were euthanized and their livers were harvested for analysis.

[9] = test system: Hep3B cells; assay: FXR siRNA studies in Hep3B cells; assay type: cell-based, Human; conditions: Compound A 1 μM, 50 ng/ml IL-6
Experimental: FXR siRNA studies were performed in Hep3B cells. […] The cells were transfected with FXR siRNA or control siRNA, stimulated with 50 ng/ml IL-6, and treated with control (DMSO) or Compound A (1 μM). CRP concentrations in the conditional media were measured by ELISA. (*P<0.01, Control siRNA/DMSO vs. Control siRNA/Compound A).
The Hep3B cells were transfected with FXR siRNA or control siRNA, stimulated with 50 ng/ml IL-6, and treated with control (DMSO) or Compound A (1 μM). […] (*P<0.001, Control siRNA vs. FXR siRNA).

[10] = 30 mg/kg orally once a day for 4 weeks, MCD diet
[11] = 30 mg/kg orally once a day for 4 weeks, MCD diet, RT PCR, p<0.001
[12] = 30 mg/kg orally once a day for 4 weeks, p<0.001
[13] = 30 mg/kg orally once a day, MCD diet for 4 weeks

With `CC(C)OC(=O)C1=CN(C(=O)c2ccc(F)c(F)c2)CC(C)(C)c2c1[nH]c1ccccc21` [Compound A, isopropyl 3-(3,4-difluorobenzoyl)-1,1-dimethyl-1,2,3,6-tetrahydroazepino[4,5-b]indole-5-carboxylate] the “Gallstone dissolution (gallstone incidence, mice with gallstones/mice)” value ([1]; vehicle 13/26) was 5/20, the “gallstone incidence in mice with preformed gallstones” value ([1]; vehicle 50%) was 25% and the “liver FXR gene expression level” value [2, 10] was “did not normalize”. The “liver FXR target gene expression (SHP, BSEP)” value [2, 10] was “normalized”, the “liver MCP-1 expression” value [2, 11] was “significantly inhibited” and the “liver VCAM-1 expression” value [2, 11] was “significantly inhibited”. The “serum aspartate aminotransferase (AST) activity level” value ([2]; 30 mg/kg orally once a day for 4 weeks, MCD diet, mean±SE, vehicle 491±38.9 U/L, p<0.0001) was 268±77 U/L, the “serum mKC level vs vehicle” value ([2]; 30 mg/kg orally once a day for 4 weeks, MCD diet, p<0.05) was “reduced” and the “liver CYP2E1 expression levels” value ([2]; 30 mg/kg orally once a day for 4 weeks, chow or MCD diet (independent of MCD diet), p<0.001) was “significant inhibition”. For the same molecule, the “liver MMP-9 expression level (MCD diet induction)” value [2, 12] was “inhibition of MCD diet induction”, the “liver MMP-14 expression level (MCD diet induction)” value [2, 12] was “inhibition of MCD diet induction” and the “liver TIMP-1 expression level (MCD diet induction)” value [2, 12] was “inhibition of MCD diet induction”. The “inflammatory cell infiltration and fibrosis in liver (Trichrome staining)” value [2, 13] was “more severe in the livers of vehicle treated compared to Compound A treated mice”, the “inflammatory cell infiltration and portal inflammation in liver (H&E staining)” value [2, 13] was “more severe in the livers of vehicle treated compared to Compound A treated mice” and the “liver function, inflammation and fibrosis (histological analyses of liver sections)” value [2, 13] was “preserved liver function, and reduced liver inflammation and fibrosis”. The “neutral lipid accumulation in the liver (Oil Red O staining)” value [2, 13] was “no effect”, the “IL-6 induced CRP mRNA levels” value [3] was “reduced” and the “liver SAA-3 levels” value [4] was “not significantly altered”. The “liver SAP levels” value [4] was “not significantly altered”, the “liver VCAM-1 levels” value [4] was “not significantly altered” and the “cholesterol gallstones in gallbladders (gross morphology)” value [5] was “clearly visible in the gallbladders of vehicle but not Compound A treated mice”. The “Gallstone formation (incidence, mice with gallstones/mice)” value ([5]; vehicle 14/19) was 0/20, the “incidence of gallstone formation” value ([5]; vehicle 73.7%) was 0% and the “reduction of liver SAA-3 levels vs vehicle” value [6] was 35%. The “reduction of liver SAP levels vs vehicle” value [6] was 40%, the “reduction of liver VCAM-1 levels vs vehicle” value [6] was 40% and the “liver TIMP-1 gene expression level vs vehicle” value ([7]; P<0.001) was “reduction”. For the same molecule, the “liver VCAM-1 gene expression level vs vehicle” value ([7]; P<0.001) was “decreasing”, the “liver Col1a2 expression level vs vehicle” value ([7]; P<0.01) was “reduction” and the “serum ALT levels vs vehicle” value ([7]; P<0.01) was “decreased”. The “decrease of serum ALT levels vs vehicle” value ([8]; P<0.01) was 60%, the “decrease of serum AST levels vs vehicle” value ([8]; P<0.01) was 75% and the “decrease of liver TGF-β levels (TGF-β1 mRNA) vs vehicle” value ([8]; normalized to GAPDH, P<0.01) was 30%. For the same molecule, the “decrease of liver a-SMA levels (mRNA) vs vehicle” value ([8]; normalized to GAPDH, P<0.01) was 40%, the “decrease of liver MMP-9 levels (mRNA) vs vehicle” value ([8]; normalized to GAPDH, P<0.04) was 75% and the “decrease of liver TIMP-1 levels (mRNA) vs vehicle” value ([8]; normalized to GAPDH, P<0.04) was 60%. For the same molecule, the “CRP inhibition at the mRNA level in cells transfected with FXR siRNA” value [9] was “suppressed” and the “inhibitory effect on CRP secretion in cells transfected with FXR siRNA” value ([9]; ELISA) was “FXR siRNA blocked Compound A's inhibitory effect”.

Reference: patent US20090163474A1, “FXR Agonists for the Treatment of Nonalcoholic Fatty Liver and Cholesterol Gallstone Diseases” (Wyeth, priority 2007, published 2009)
